For orientation: Emax means the size of the effect at its maximum, as opposed to the concentration needed.

Each structure is given as a SMILES string.

This test addresses T1, OGA (Homo sapiens, UniProt O60502).
T1 construct: endogenous in cells; host or cells: HEK293 cells inducible for P301L mutant human Tau (2N4R)
T1 sequence (O60502 1-916): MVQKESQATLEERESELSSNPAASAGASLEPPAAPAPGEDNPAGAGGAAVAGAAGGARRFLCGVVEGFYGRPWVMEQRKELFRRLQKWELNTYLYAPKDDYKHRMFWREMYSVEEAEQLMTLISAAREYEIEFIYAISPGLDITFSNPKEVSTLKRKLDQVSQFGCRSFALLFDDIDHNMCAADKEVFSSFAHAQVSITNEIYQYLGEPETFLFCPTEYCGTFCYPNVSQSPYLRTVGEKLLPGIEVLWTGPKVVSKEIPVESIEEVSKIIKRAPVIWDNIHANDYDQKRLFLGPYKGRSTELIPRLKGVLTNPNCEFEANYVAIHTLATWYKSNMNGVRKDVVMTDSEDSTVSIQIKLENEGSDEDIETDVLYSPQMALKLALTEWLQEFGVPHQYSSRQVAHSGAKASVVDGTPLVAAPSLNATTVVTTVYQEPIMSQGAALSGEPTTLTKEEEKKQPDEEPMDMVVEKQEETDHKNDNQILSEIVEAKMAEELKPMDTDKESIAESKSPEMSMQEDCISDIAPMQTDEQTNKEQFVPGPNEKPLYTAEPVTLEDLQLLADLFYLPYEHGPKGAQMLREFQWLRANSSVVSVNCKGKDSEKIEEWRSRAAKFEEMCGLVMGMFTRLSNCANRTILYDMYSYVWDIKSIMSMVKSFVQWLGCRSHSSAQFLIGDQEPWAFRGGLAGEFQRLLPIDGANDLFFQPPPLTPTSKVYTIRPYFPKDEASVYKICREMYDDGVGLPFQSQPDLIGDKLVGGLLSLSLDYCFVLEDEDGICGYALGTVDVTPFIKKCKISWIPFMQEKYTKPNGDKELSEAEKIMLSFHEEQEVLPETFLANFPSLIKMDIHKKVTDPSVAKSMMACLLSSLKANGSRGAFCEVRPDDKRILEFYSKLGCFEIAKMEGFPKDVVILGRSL
The experiment in a line: OGA cellular assay (ICC detection of O-GlcNAcylated proteins in HEK293 cells inducible for P301L mutant human Tau). The format is cell-based. The settings on record: for EC50: 6 hours incubation, read-out: Cellular hOGA, pEC50 (converted). The method in brief:
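HEK293 cells inducible for P301L Tau, in low-glucose assay medium, treated 6 h with compound at 0.2% DMSO. O-GlcNAcylated proteins detected by CTD110.6 immunostaining, imaged at 488 nm with Hoechst nuclear counts for toxicity. IC50 from non-linear regression, 200 uM Thiamet G as maximum.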

The mark [1] stands for this setting: HEK293 cells inducible for P301L mutant human Tau.

Regarding `Cc1cc(OC[C@H]2CCCN(C(C)c3nc4c(cc3F)OCCO4)C2)cc(C)n1` (single isomer, unassigned) [Product 155], under setting [1], the EC50 is 2.57 nM. In addition, the “Cellular Emax (%)” value (HEK293 cells inducible for P301L mutant human Tau, maximal effect, Thiamet G 200 uM as maximum) is given as 95%.

`Cc1cc([C@H]2CCCN(C(C)c3cnc4c(c3)OCCN4)C2)cc(C)n1` (single isomer, unassigned) [Product 135] returned a maximum response (Emax) (HEK293, HEK293 cells inducible for P301L mutant human Tau, maximal effect, Thiamet G 200 uM as maximum) of 68%. Further, the EC50 under setting [1] is 25.1 nM.
